From patent US20230398125A1, “TREATING HEPATITIS” (Albireo AB, priority 2022, published 2023) come the findings set out here.

One data set deals with T1, Human NTCP (Homo sapiens, UniProt Q14973).
T1 construct: expressed in transfected cells; peptide purchased from Pharmaron
T1 sequence (Q14973 1-349): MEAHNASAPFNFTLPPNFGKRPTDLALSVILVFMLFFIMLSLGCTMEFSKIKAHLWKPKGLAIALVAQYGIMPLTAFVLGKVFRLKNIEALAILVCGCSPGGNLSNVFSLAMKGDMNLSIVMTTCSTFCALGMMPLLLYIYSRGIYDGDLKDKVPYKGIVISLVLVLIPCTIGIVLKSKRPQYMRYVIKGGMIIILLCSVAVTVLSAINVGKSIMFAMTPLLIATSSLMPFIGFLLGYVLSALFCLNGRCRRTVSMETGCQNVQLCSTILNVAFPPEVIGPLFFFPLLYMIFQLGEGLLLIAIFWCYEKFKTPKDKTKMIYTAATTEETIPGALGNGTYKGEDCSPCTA
The data set can be described thus: 3H-taurocholic acid uptake in human NTCP-overexpressing cells. The data set is classed as cell-based. The note with it: 3H-taurocholic acid transport. The protocol: 20,000 cells (Human & Mouse NTCP-overexpressing cells) were seeded in 96-well plate in 100 μL MEM-alpha medium supplemented with 10% FBS containing geneticin (1 mg/mL) and incubated at 37° C. in 5% CO2 for 24 hrs. After incubation, media was decanted from the wells and cells were washed two times with 250 μL of basal MEM-alpha medium (FBS-free). After each wash, plates were tapped against a paper towel to ensure maximum removal of residual media. For Human NTCP (hNTCP), incubation mix was prepared by adding test inhibitor dilutions (3-fold serial dilution in DMSO, 10 concentrations) in MEM-alpha (without FBS) containing 0.3 μM ^3H-taurocholic acid and 7.5 μM cold taurocholic acid (maintaining 0.2% final DMSO concentration). […]
The plates were tapped against a paper towel after every wash to ensure maximum removal of blocking buffer. 100 μL of MicroScint-20 was added to the wells and kept overnight at room temperature before reading the plates in MicroBeta2 liquid Scintillation Counter from PerkinElmer under 3H Test for I/L-BAT protocol (set at 120 seconds reading time per well, with normal plate orientation).
Percentage inhibitions were calculated with respect to the assay controls. […]

The nature of data set [1]: XTT cell toxicity in primary human hepatocytes. Format: cell-based. The note with it: human, primary human hepatocytes, read-out: TC50. On the procedure: (§1) Multiplicity of Infection (MOI) is defined as the number of HBV genome equivalents, as determined by the qPCR quantitation, added per cell in the respective growth format. The overnight media was removed from the cells and replaced with 190 μL of new, serum-free HI media/4% PEG8000 and 10 μL of the diluted virus stock (HepG2 AD38 genotype D) for a MOI of 500. Medium alone was added to the cells containing compound for the parallel cytotoxicity evaluation. After 18 hours of virus infection, the cells were gently washed five times with DPBS, followed by a new addition of 200 μL HI media containing compounds on day 1, day 4 and day 7 post-infection. In one set of experiments (Study #01), the effect of giving compound 18 h prior to infection, versus 18 h post-infection was studied. The supernatant removed from the cytotoxicity plates at each medium change was stored at −20° C. for shipment to the client. The supernatant was collected at 10 days post infection and stored at −20° C. for total extracellular HBV DNA copy number to be quantitatively determined by qPCR. Cell viability was measured by XTT tetrazolium dye at day 10 for the cytotoxicity plates.
(§2) Following incubation at 37° C. in a 5% CO2 incubator for ten days, the test plates were stained with the tetrazolium dye XTT (2,3-bis(2-methoxy-4-nitro-5-sulfophenyl}-5-[(phenylamino)carbonyl]-2H-tetrazolium hydroxide). XTT-tetrazolium was metabolized by the mitochondrial enzymes of metabolically active cells to a soluble formazan product. XTT solution was prepared daily as a stock of 1 mg/mL in RPMI1640. Phenazine methosulfate (PMS) solution was prepared at 0.15 mg/mL in PBS and stored in the dark at −20° C.
(§3) XTT/PMS stock was prepared immediately before use by adding 40 μL of PMS per mL of XTT solution. Fifty microliters of XTT/PMS were added to each well of the plate and the plate was re-incubated for 4 hours at 37° C. Plates were sealed with adhesive plate sealers and shaken gently or inverted several times to mix the soluble formazan product and the plate was read spectrophotometrically at 450/650 nm with a Molecular Devices Vmax plate reader.
(§4) Each concentration of inhibitor and controls were analyzed in triplicate for HBV DNA copies and for cellular toxicity, respectively. From control wells without inhibitor, the mean of these three replicates was calculated and the HBV DNA mean was set to 100% viral control and the XTT mean was set to 100% cell viability. The effect of compound was then expressed as % of viral control and % cell viability, respectively.
A general note: Formazan colour is commonly taken as a measure of viable cells.

Data set [2] has as its system Primary Human Hepatocytes. The experiment in a line: XTT cell toxicity in primary human hepatocytes. Format: cell-based. The protocol: as §1, §2, §3, §4
Data set [3] deals with HBV (HepG2 AD38 genotype D). The experiment in a line: HBV infection of primary human hepatocytes, extracellular HBV DNA by qPCR. The data set is classed as cell-based, hepatitis B virus. To be noted: for EC50: Hepatitis B virus. On the technique in general: Real-time PCR tracks product formation cycle by cycle.

As a reminder, the IC50 is the concentration that gives 50% inhibition. A word on the EC50: it is the concentration at which the effect is half-maximal. As usually defined, the inhibition is the change of the read-out against control, counted positive when it falls. Read a low inhibition as a weak effect.

Read-outs that look alike come from different tables or passages of the source.

With `CCCCC1CN(c2ccccc2)c2cc(SC)c(O/C=C(\F)C(=O)O)cc2S(=O)(=O)N1C` (stereo not shown) [Compound 1, (Z)-3-((3-butyl-2-methyl-7-(methylthio)-1,1-dioxido-5-phenyl-2,3,4,5-tetrahydro-1,2,5-benzothiadiazepin-8-yl)oxy)-2-fluoroacrylic acid], the IC50 against Human NTCP was determined as 0.53 ± 0.081 nM. Besides, the CC50 at 10 days in data set [1] (Study #01, XTT, PHH) is > 1000 nM; in data set [1] (Study #02) it was > 200 nM; in data set [1] (Study #03), > 50 nM. For the same compound, the TC50 in data set [2] (Study #01, 18 h post-infection section) was >1000 nM. Besides, the “effect on cell viability” value in data set [2] (any concentration tested (up to 100 μmol/L)) is on record as “did not affect cell viability”. In addition, the EC50 in data set [3] (HepG2, 18 h, Study #01, compound given 18 h post-infection) is > 1 nM; in data set [3] (HepG2, Study #01, #02 and #03 merged, four parameter regression, read-out: EC50 from fitted curve of merged data), 4.9 nM; in data set [3] (HepG2, Study #01, compound given 18 h prior to infection, PHH, HBV DNA, read-out: EC50) it was 4 nM; in data set [3] (HepG2, Study #02, PHH, read-out: EC50), < 6.3 nM; in data set [3] (HepG2, Study #03, PHH, read-out: EC50), 11 nM. Moreover, the “antiviral activity/potency when given 18 h post-infection” value in data set [3] (Study #01) is “lost”. For the same compound, the Max inhibition in data set [3] (Study #01, 18 h prior to infection) was found to be 97%; in data set [3] (Study #02) it was 88%; in data set [3] (Study #03), 63%. Also, the “inhibition at the lowest concentration tested” value in data set [3] (Study #02, 6.25 nmol/L) stood at 58%.
